Laboratory results: the NIST ThermoML archive (doi:10.1016/j.jct.2015.03.017)

Experiment: mn = molality of the nth substance listed, in mol/kg
Settings: 74.66 kPa, Liquid; for speed of sound: Frequency=3 MHz, Sing-around technique in a fixed-path interferometer; for mass density: Vibrating tube method

CCCC[N+](CCCC)(C(C)CC)C(C)CC.[Br-] (stereo not given) [N-butyl-N,N-bis(1-methylpropyl)-1-butanaminium bromide] + O
Settings	mass density, 278.15 K [kg/m3]	mass density, 283.15 K [kg/m3]	mass density, 288.15 K [kg/m3]	mass density, 293.15 K [kg/m3]	speed of sound, 278.15 K [m/s]	speed of sound, 283.15 K [m/s]	speed of sound, 288.15 K [m/s]	speed of sound, 293.15 K [m/s]	speed of sound, 298.15 K [m/s]
m1 = 0.01181	1000.58	1000.3	999.698	998.799	1431.4	1452	1470.2	1486.2	1500.2
m1 = 0.02026	1001.03	1000.75	1000.13	999.231	1433.3	1453.8	1472	1488	1502.1
m1 = 0.03102	1001.6	1001.32	1000.7	999.791	1435.8	1456.1	1474.1	1489.9	1503.9
m1 = 0.04017	1002.1	1001.81	1001.19	1000.28	1438.2	1458.3	1476	1491.6	1505.3
m1 = 0.05043	1002.66	1002.36	1001.73	1000.81	1440	1459.8	1477.4	1492.9	1506.4
m1 = 0.0598	1003.17	1002.87	1002.24	1001.32	1442.6	1462.2	1479.5	1494.8	1508.4
m1 = 0.06968	1003.71	1003.41	1002.76	1001.84	1445	1464.4	1481.6	1496.6	1509.9
m1 = 0.08191	1004.37	1004.06	1003.42	1002.5	1447.4	1466.7	1483.7	1498.7	1511.8
m1 = 0.09038	1004.85	1004.53	1003.89	1002.96	1450.6	1469.6	1486.4	1501.1	1514
m1 = 0.1036	1005.56	1005.25	1004.59	1003.66	1453.5	1472.2	1488.9	1503.7	1516.5

CCCC[N+](CCCC)(CC(C)C)CC(C)C.[Br-] [N-butyl-N,N-bis(2-methylpropyl)-1-butanaminium bromide] + O
Settings	mass density, 278.15 K [kg/m3]	mass density, 283.15 K [kg/m3]	mass density, 288.15 K [kg/m3]	mass density, 293.15 K [kg/m3]	speed of sound, 278.15 K [m/s]	speed of sound, 283.15 K [m/s]	speed of sound, 288.15 K [m/s]	speed of sound, 293.15 K [m/s]	speed of sound, 298.15 K [m/s]
m1 = 0.01065	1000.5	1000.23	999.628	998.731	1431.7	1452	1469.2	1485.3	1499.3
m1 = 0.01998	1000.98	1000.71	1000.11	999.207	1433.3	1453.7	1471.8	1487.8	1501.8
m1 = 0.0287	1001.44	1001.16	1000.55	999.654	1435.3	1455.5	1473.4	1489.1	1502.9
m1 = 0.03816	1001.92	1001.65	1001.04	1000.13	–	–	–	–	–
m1 = 0.04991	1002.55	1002.27	1001.65	1000.74	1440.2	1460	1477.6	1493	1506.5
m1 = 0.05935	1003.05	1002.75	1002.13	1001.22	1443	1462.6	1479.9	1495.1	1508.5
m1 = 0.06884	1003.54	1003.25	1002.62	1001.71	1446.3	1465.8	1483.1	1498.3	1511.6
m1 = 0.08078	1004.18	1003.88	1003.25	1002.33	1449	1468.1	1485.2	1500.2	1513.4
m1 = 0.0922	1004.77	1004.47	1003.83	1002.91	1451.4	1470.1	1486.8	1501.5	1514.3
m1 = 0.1044	1005.43	1005.11	1004.46	1003.53	1453.6	1472.4	1488.9	1503.4	1516
